Assay results from patent US8354419B2, “Benzimidazole analogues for the treatment or prevention of flavivirus infections” (Vertex Pharmaceuticals Incorporated, priority 2009, dated 2013).
pEC50: −log10 of the molar value. Read-outs that look alike come from different tables or passages of the source.

Tested on: HCV (Ib) RNA replication
Assay: Cell-based luciferase reporter HCV (1b) RNA replication assay (replicon cell lines Huh-7 5.2 and ET)
Parameters: species or system Hepatitis C virus
Conditions: HCV 1b genotype replicon, luciferase readout, 4 days incubation, read-out: EC50_1b
Method in brief: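 Compounds were tested at eleven concentrations in duplicate over 4 days at 37 °C, 5% CO2. The cells were luciferase-reporter HCV 1b replicon lines 5.2 (NS5A adaptive mutation) or ET (NS4B mutation). Luminescence of lysates was measured, and IC50s were derived by nonlinear curve fitting.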

SMILES | pEC50 (Hepatitis C virus, Huh-7, 96 h) | pEC50
COC(=O)N(C)[C@H](C(=O)N1CCC[C@H]1c1nc2cc(-c3ccc(-c4ccc5nc([C@@H]6CCCN6C(=O)[C@H](C(C)C)N(C)C(=O)OC)[nH]c5c4)cc3)ccc2[nH]1)C(C)C [Compound 4, [(S)-1-((S)-2-{5-[4-(2-{(S)-1-[(S)-2-(Methoxycarbonyl-methyl-amino)-3-methyl-butyryl]-pyrrolidin-2-yl}-1H-benzoimidazol-5-yl)-phenyl]-1H-benzoimidazol-2-yl}-pyrrolidine-1-carbonyl)-2-methyl-propyl]-methyl-carbamic acid methyl ester] | ≥ 8.30 | 
CC[C@H](NC(=O)OC)C(=O)N1CCC[C@H]1c1nc2cc(C#Cc3ccc4[nH]c([C@@H]5CCCN5C(=O)[C@H](CC)NC(=O)OC)nc4c3)ccc2[nH]1 [Compound 118] | ≥ 8.30 | 
O=C(OCc1ccccc1)N1CCCC[C@H]1c1nc2cc(C#Cc3ccc4nc([C@@H]5CCCN5C(=O)OCc5ccccc5)[nH]c4c3)ccc2[nH]1 [Compound 49] | 5.30 to 8.30 | 
CC(C)[C@H](NC(=O)O[C@H]1CCOC1)C(=O)N1CCC[C@H]1c1nc2cc(-c3csc(-c4ccc5[nH]c([C@@H]6CCCN6C(=O)[C@@H](NC(=O)O[C@H]6CCOC6)C(C)C)nc5c4)n3)ccc2[nH]1 [Compound 160] | 5.30 to 8.30 | 
COC(=O)N[C@@H](C(=O)N1CCC[C@H]1c1nc2cc(-c3ccc(-c4ccc5[nH]c([C@@H]6CCCN6C(=O)[C@H](NC(=O)OC)C(C)C)nc5c4)nn3)ccc2[nH]1)C(C)C [Compound 162] | ≥ 8.30 | 
CC(=O)NC1(C(=O)N2CCC[C@H]2c2nc3cc(C#Cc4ccc5[nH]c([C@@H]6CCCN6C(=O)C6(NC(C)=O)CC6)nc5c4)ccc3[nH]2)CC1 [Compound 110] | < 5.30 | 
O=C(N1CCOCC1)N1CCC[C@H]1c1nc2cc(C#Cc3ccc4[nH]c([C@@H]5CCCN5C(=O)N5CCOCC5)nc4c3)ccc2[nH]1 [Compound 75] | ≥ 8.30 | 
COC(=O)N[C@H](C(=O)N1C[C@@H](C)C[C@H]1c1nc2cc(C#CC#Cc3ccc4[nH]c([C@@H]5C[C@H](C)CN5C(=O)[C@@H](NC(=O)OC)C(C)C)nc4c3)ccc2[nH]1)C(C)C [Compound 251] | ≥ 8.30 | 
CN1CCC[C@H]1C(=O)N1CCCC1c1nc2ccc(C#Cc3ccc4[nH]c([C@@H]5CCCN5C(=O)[C@@H]5CCCN5C)nc4c3)cc2[nH]1 (some centres unmarked) [Compound 66] | 5.30 to 8.30 | 
CC(C)C[C@@H](C(=O)N1CCC[C@H]1c1nc2cc(C#Cc3ccc4[nH]c([C@@H]5CCCN5C(=O)[C@H](CC(C)C)N5CCCC5=O)nc4c3)ccc2[nH]1)N1CCCC1=O [Compound 84] | ≥ 8.30 | 
O=C(CC1CCOCC1)N1CCC[C@H]1c1nc2cc(C#Cc3ccc4[nH]c([C@@H]5CCCN5C(=O)CC5CCOCC5)nc4c3)ccc2[nH]1 [Compound 106] | 5.30 to 8.30 | 
O=C(OCc1ccccc1)N1CCC[C@H]1c1nc2ccc(N3CCN(c4ccc5nc([C@@H]6CCCN6C(=O)OCc6ccccc6)[nH]c5c4)CC3)cc2[nH]1 [Compound 210] | 5.30 to 8.30 | 
COC(=O)N[C@H](C(=O)N1CCC[C@H]1c1nc2cc(-c3c(F)cc(-c4ccc5nc([C@@H]6CCCN6C(=O)[C@@H](NC(=O)OC)C(C)C)[nH]c5c4)cc3F)ccc2[nH]1)C(C)C [Compound 143] | ≥ 8.30 | 
CC(C)(C)OC(=O)N1CCC[C@H]1c1nc2cc(-c3ccc(-c4ccc5[nH]c([C@@H]6CCCN6C(=O)OC(C)(C)C)nc5c4)s3)ccc2[nH]1 [Compound 16, (2S,2′S)-tert-butyl-2,2′-(5,5′-(thiophene-2,5-diyl)bis(1H-benzo[d]imidazole-5,2-diyl))dipyrrolidine-1-carboxylate] | 5.30 to 8.30 | 
CCCCc1cc(-c2ccc3[nH]c([C@@H]4CCCN4C(=O)[C@@H](NC(=O)OC)C(C)C)nc3c2)sc1-c1ccc2[nH]c([C@@H]3CCCN3C(=O)[C@@H](NC(=O)OC)C(C)C)nc2c1 [Compound 157] | ≥ 8.30 | 
Cn1c([C@@H]2CCCN2C(=O)OC(C)(C)C)nc2cc(-c3ccc(-c4ccc5[nH]c([C@@H]6CCCN6C(=O)OC(C)(C)C)nc5c4)cc3)ccc21 [Compound 226] | 5.30 to 8.30 | 
COC(=O)N[C@H](C(=O)N1C[C@H](OC(C)(C)C)C[C@H]1c1nc2cc(-c3ccc(-c4ccc5[nH]c([C@@H]6C[C@@H](OC(C)(C)C)CN6C(=O)[C@@H](NC(=O)OC)C(C)C)nc5c4)cc3)ccc2[nH]1)C(C)C [Compound 25, ((S)-1-{(2S,4R)-4-tert-butoxy-2-[5-(4-{2-[(2S,4R)-4-tert-butoxy-1-((S)-2-methoxycarbonylamino-3-methyl-butyryl)-pyrrolidin-2-yl]-1H-benzoimidazol-5-yl}-phenyl)-1H-benzoimidazol-2-yl]-pyrrolidine-1-carbonyl}-2-methyl-propyl)-carbamic acid methyl ester] | ≥ 8.30 | 
COC(=O)N[C@H](C(=O)N1CCC[C@@]1(C)c1nc2cc(-c3ccc(-c4ccc5[nH]c([C@]6(C)CCCN6C(=O)[C@@H](NC(=O)OC)C(C)C)nc5c4)cc3)ccc2[nH]1)C(C)C [Compound 249] | ≥ 8.30 | 
Cn1c([C@@H]2CCCN2C(=O)OC(C)(C)C)nc2ccc(-c3ccc(-c4ccc5nc([C@@H]6CCCN6C(=O)OC(C)(C)C)n(C)c5c4)cc3)cc21 [Compound 257] | 5.30 to 8.30 | 
Cn1c([C@@H]2CCCN2)nc2cc(-c3ccc(-c4ccc5[nH]c([C@@H]6CCCN6)nc5c4)cc3)ccc21 [Compound 228] | < 5.30 | 
C[C@H]1C[C@@H](c2nc3ccc(-c4ccc(-c5ccc6nc([C@@H]7C[C@H](C)CN7C(=O)OC(C)(C)C)n(C)c6c5)cc4)cc3n2C)N(C(=O)OC(C)(C)C)C1 [Compound 291] | 5.30 to 8.30 | 
O=C([C@H]1C[C@H](O)CN1)N1CCC[C@H]1c1nc2cc(C#Cc3ccc4[nH]c([C@@H]5CCCN5C(=O)[C@H]5C[C@H](O)CN5)nc4c3)ccc2[nH]1 [Compound 100] | < 5.30 | 
COC(=O)NC(C(=O)N1CCCC1c1nc2cc(-c3ccc(-c4ccc5nc(C6CCCN6C(=O)C(NC(=O)OC)C(C)(C)C)[nH]c5c4)cc3)ccc2[nH]1)C(C)(C)C (centres unmarked) [Compound 193] |  | 5.30 to 8.30
COC(=O)N[C@H](C(=O)N1[C@@H](C)CC[C@H]1c1nc2cc(-c3cc4sc(-c5ccc6[nH]c([C@@H]7CC[C@H](C)N7C(=O)[C@@H](NC(=O)OC)C(C)C)nc6c5)cc4s3)ccc2[nH]1)C(C)C [Compound 321] | ≥ 8.30 | 
COC(=O)N[C@H](C(=O)N1CCC[C@H]1c1nc2cc(C#Cc3ccc4nc([C@@H]5CCCN5C(=O)NC5CCCCC5)[nH]c4c3)ccc2[nH]1)C(C)C [Compound 123] | 5.30 to 8.30 | 
COC(=O)N[C@H](C(=O)N1C[C@@H](C)C[C@H]1c1nc2cc(-c3ccc(-c4ccc5[nH]c([C@@H]6C[C@H](C)CN6C(=O)[C@@H]6CCCN6C(=O)OC)nc5c4)cc3)ccc2[nH]1)C(C)C [Compound 288] | ≥ 8.30 | 
COC(=O)N[C@H](C(=O)N1C[C@@H](C)C[C@H]1c1nc2cc(-c3ccc(-c4ccc5nc([C@@H]6C[C@H](C)CN6C(=O)[C@@H](NC(=O)OC)C(C)C)[nH]c5c4)cc3C(=O)O)ccc2[nH]1)C(C)C [Compound 270] | 5.30 to 8.30 | 
COC(=O)N[C@H](C(=O)N1CCC[C@H]1c1nc2cc(N3CCN(c4ccc5[nH]c([C@@H]6CCCN6C(=O)[C@@H](NC(=O)OC)C(C)C)nc5c4)[C@@H](C)C3)ccc2[nH]1)C(C)C [Compound 329] | ≥ 8.30 | 
COC(=O)NC(C(=O)N1CCC[C@H]1c1nc2ccc(-c3ccc(-c4ccc5nc([C@@H]6CCCN6C(=O)[C@@H](NC(=O)OC)C(C)C)[nH]c5c4)cc3)cc2[nH]1)C(C)(C)C (some centres unmarked) [Compound 211] | ≥ 8.30 | 
